Values of other authors in patent publication US8227490B2, “Use of 1-hydroxy-2-pyridones for the treatment of seborrheic dermatitis” (Medicis Pharmaceutical Corporation, priority 1996, dated 2012).

Test system: gram-positive bacteria
Details: Kinsman et al., J. Med. Microbiol. (1983)

CC(=O)N1CCN(c2ccc(OCC3COC(Cn4ccnc4)(c4ccc(Cl)cc4Cl)O3)cc2)CC1 (stereo not shown) [ketoconazole]
activity in vitro against gram-positive bacteria: inactive
